Data as given in patent US20220313724A1, “COMPOSITIONS FOR INTRATUMORAL ADMINISTRATION AND RELATED METHODS” (HIGHLIGHT THERAPEUTICS, S.L., priority 2021, published 2022).

Assays:
[1] = system: MC38 or B16.OVA cells; assay: Single-agent repeated intratumoral injections in mice bearing bilateral tumors; assay type: in vivo, mouse; details: injected tumor
From the text: Mouse tumor models. […] Female mice were used at 8-12 weeks of age and housed under specific pathogen-free conditions. The abscopal effect was studied by injecting 4×10^5 MC38 or B16.OVA cells subcutaneously (s.c.) into the right flank of C57BL/6 mice, whereas the left flank received an injection (s.c.) of 2×10^5 (MC38) or 1.25×10^5 (B16.OVA) cancer cells. When right tumors reached a tumor volume of 80-100 mm^3 (approximately one week after tumor inoculation), mice were randomized into different treatment groups.
Evaluation of compounds. […] Control mice received intratumoral injections of PBS containing 5% glucose and/or 5% DMSO (vehicle) as indicated. Treated and untreated tumors were measured twice a week with calipers and the volume was calculated (length×width^2/2). […] When right and left tumors reached a diameter of 80-100 mm, mice were randomized to three groups. […] The control, untreated third-party tumor was untreated in all groups.

[2] = system: circulating cytokines or chemokines; assay: Circulating cytokines or chemokines after intratumoral treatment; assay type: in vivo, mouse; details: systemic

## Cc1ccc2c(=O)c3cccc(CC(=O)O)c3oc2c1C [DMXAA, 5,6-dimethylxanthenone-4-acetic acid]
[1]
  response of directly injected tumors to the treatment: remarkably responded
[2]
  circulating type I Interferons, IL-12, IL-18, TNFalpha (TNFα) and CXCL10: either did not cause systemic circulating elevations or only enhanced those observed upon treatment with BO-112
